Measured values reported in patent US20220323406A1, “METHODS AND COMPOSITIONS FOR DIFFERENTIATING STEM CELLS” (Massachusetts Institute of Technology, priority 2019, published 2022).
Like-named read-outs stand apart in the source and are kept apart here.

Tests used:
[1] = system: ENR+CD organoids (ISC to Paneth cell differentiation); test: Primary screen: CCh-stimulated lysozyme secretion LYZ.S, 2.5-D 384-well ENR+CD organoid differentiation; type: cell-based, mouse; settings: primary screen
From the text: (§1) High-throughput screening.

[2] = system: ENR+CD organoids (ISC to Paneth cell differentiation); test: Primary screen: basal (non-stimulated) lysozyme secretion LYZ.NS, 2.5-D 384-well ENR+CD organoid differentiation; type: cell-based, mouse
From the text: as §1

[3] = primary screen, standard z score, dose 0.08 uM
[4] = primary screen, standard z score, dose 0.40 uM
[5] = primary screen, standard z score, dose 2.00 uM
[6] = primary screen, standard z score, dose 10.00 uM
[7] = primary screen, dose 0.08 uM, standard z score
[8] = primary screen, dose 0.40 uM, standard z score
[9] = primary screen, dose 2.00 uM, standard z score
[10] = primary screen, dose 10.00 uM, standard z score
[11] = primary screen; dose 0.08 uM; FC vs plate median
[12] = primary screen; dose 0.40 uM; FC vs plate median
[13] = primary screen; dose 2.00 uM; FC vs plate median
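Wherever Dose.FC.CTG is given: compounds given at plating and again on day 3 over a 6-day differentiation from ENR+CV stem-cell-enriched precursors, ATP measured on day 6, plate median as control.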
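Wherever Z.CTG is given: compounds given at plating and again on day 3 over a 6-day differentiation from ENR+CV stem-cell-enriched precursors, ATP measured on day 6, plate median as control.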

With `C=C1C[C@@H]2[C@H](CC[C@]3(C)C(=O)CC[C@@H]23)[C@@]2(C)C=CC(=O)C=C12` [Exemestane] the Dose.FC.LYZ.S ([1]; dose 0.08 uM) was 0.062 log2 fold change, the Dose.FC.LYZ.S ([1]; dose 0.40 uM) was 0.035 log2 fold change and the Dose.FC.LYZ.S ([1]; dose 2.00 uM) was 0.058 log2 fold change. It also gave a Dose.FC.LYZ.S ([1]; dose 10.00 uM) of −0.005 log2 fold change, a Dose.FC.LYZ.NS ([2]; primary screen, dose 0.08 uM) of 0.051 log2 fold change and a Dose.FC.LYZ.NS ([2]; primary screen, dose 0.40 uM) of 0.079 log2 fold change. It also gave a Dose.FC.LYZ.NS ([2]; primary screen, dose 2.00 uM) of 0.001 log2 fold change, a Dose.FC.LYZ.NS ([2]; primary screen, dose 10.00 uM) of 0.007 log2 fold change and a Z.LYZ.NS [2, 3] of 0.447. It also gave a Z.LYZ.NS [2, 4] of 0.687, a Z.LYZ.NS [2, 5] of 0.012 and a Z.LYZ.NS [2, 6] of 0.060. The Dose.FC.CTG (ENR+CD organoids; primary screen, dose 0.08 uM) was −0.046 log2 fold change, the Dose.FC.CTG (ENR+CD organoids; primary screen, dose 0.40 uM) was −0.407 log2 fold change and the Dose.FC.CTG (ENR+CD organoids; primary screen, dose 2.00 uM) was 0.170 log2 fold change. The Dose.FC.CTG (ENR+CD organoids; primary screen, dose 10.00 uM) was −0.167 log2 fold change, the Z.CTG (ENR+CD organoids; [3]) was −0.110 and the Z.CTG (ENR+CD organoids; [4]) was −0.973. It also gave a Z.CTG (ENR+CD organoids; [5]) of 0.405 and a Z.CTG (ENR+CD organoids; [6]) of −0.398.
`C[C@@H]1O[C@@H](O[C@H]2C[C@@H](O)[C@]3(CO)[C@H]4[C@H](O)C[C@]5(C)[C@@H](C6=CC(=O)OC6)CC[C@]5(O)[C@@H]4CC[C@]3(O)C2)[C@H](O)[C@H](O)[C@H]1O` [Ouabain] gave a Dose.FC.LYZ.S ([1]; dose 0.08 uM, FC vs plate median) of 0.040 log2 fold change, a Dose.FC.LYZ.S ([1]; dose 0.40 uM, FC vs plate median) of 0.035 log2 fold change and a Dose.FC.LYZ.S ([1]; dose 2.00 uM, FC vs plate median) of 0.003 log2 fold change. The Dose.FC.LYZ.S ([1]; dose 10.00 uM, FC vs plate median) was 0.050 log2 fold change, the Z.LYZ.NS [2, 7] was −0.025 and the Z.LYZ.NS [2, 8] was 0.315. It also gave a Z.LYZ.NS [2, 9] of 0.092, a Z.LYZ.NS [2, 10] of 1.433 and a Dose.FC.LYZ.NS [2, 11] of −0.003 log2 fold change. The Dose.FC.LYZ.NS [2, 12] was 0.036 log2 fold change, the Dose.FC.LYZ.NS [2, 13] was 0.011 log2 fold change and the Dose.FC.LYZ.NS ([2]; primary screen; dose 10.00 uM; FC vs plate median) was 0.165 log2 fold change. The Dose.FC.CTG (ENR+CD organoids; 10 µM) was −0.288 log2 fold change, the Z.CTG (ENR+CD organoids; [7]) was 0.023 and the Z.CTG (ENR+CD organoids; [8]) was 0.290. The Z.CTG (ENR+CD organoids; [9]) was 0.190, the Z.CTG (ENR+CD organoids; [10]) was −0.688 and the Dose.FC.CTG (ENR+CD organoids; [11]) was 0.010 log2 fold change. For the same compound, the Dose.FC.CTG (ENR+CD organoids; [12]) was 0.122 log2 fold change and the Dose.FC.CTG (ENR+CD organoids; [13]) was 0.080 log2 fold change.
